From US20080182898A1, “Treatment of metabolic syndrome with norfluoxetine” (AMPLA Pharmaceuticals Inc., priority 2007, published 2008) come the findings set out here.

CB1 receptor, sequence (P21554 whole entry): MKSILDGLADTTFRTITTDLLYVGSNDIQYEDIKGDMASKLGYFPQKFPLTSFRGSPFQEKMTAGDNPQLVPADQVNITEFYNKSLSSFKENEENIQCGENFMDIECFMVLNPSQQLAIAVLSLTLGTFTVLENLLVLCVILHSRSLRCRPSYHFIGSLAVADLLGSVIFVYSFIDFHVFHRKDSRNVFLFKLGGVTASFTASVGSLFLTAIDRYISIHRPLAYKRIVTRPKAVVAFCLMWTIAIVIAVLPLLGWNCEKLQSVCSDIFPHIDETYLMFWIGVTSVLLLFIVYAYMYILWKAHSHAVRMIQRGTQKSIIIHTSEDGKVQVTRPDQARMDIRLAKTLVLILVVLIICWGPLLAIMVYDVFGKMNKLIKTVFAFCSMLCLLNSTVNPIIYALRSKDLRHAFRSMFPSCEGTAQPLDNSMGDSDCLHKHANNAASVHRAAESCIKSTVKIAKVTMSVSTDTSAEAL

The assay concerns the target CB1 receptor (Homo sapiens, UniProt P21554). In words: functional activity versus the CB1 receptor. Particulars: qualitative statement, no method or numbers given.
With `NCCC(Oc1ccc(C(F)(F)F)cc1)c1ccccc1` (racemic) [racemate of norfluoxetine, 3-(4-trifluoromethylphenoxy)3-phenylpropylamine], the “functional activity versus the CB1 receptor (mode of action)” value is reported as “antagonist”. For `CNCC[C@@H](Oc1ccc(C(F)(F)F)cc1)c1ccccc1` [(R)-fluoxetine], the “functional activity versus the CB1 receptor (mode of action)” value is given as “antagonist”. Turning to `CNCC[C@H](Oc1ccc(C(F)(F)F)cc1)c1ccccc1` [(S)-Fluoxetine], the “functional activity versus the CB1 receptor (mode of action)” value is recorded as “inverse agonist”.
